Test results: US7547716B2, “Sulfonamide derivatives” (Institute of Medicinal Molecular Design, Inc., priority 2001, dated 2009)
Counter-ions that a name gives are not always drawn.

These compounds were tested on Jurkat cells (assay: Jurkat cell proliferation, compound alone or combined with bleomycin, living cells counted by MTS method). Conditions: enhancement of the decrease in Jurkat cell survival rate by bleomycin 5 μg/ml or 10 μg/ml, 36 hours incubation.
Format: cell-based
Parameters: key: ++ indicates observation of remarkable enhancement; + indicates moderated enhancement
Method: By using the compounds synthesized above, effects on proliferation of Jurkat cells by sole administration and inhibitory effects on cell proliferation by administration in combination with bleomycin were examined. Materials and methods are as follows. Jurkat cells obtained from Dainippon Pharmaceutical Co. Ltd. were inoculated at about 10,000 cells per well in a 96 well culture plate, and incubated in 10% bovine fetal serum (Irvine Scientific) supplemented with RPMI1640(ICN) medium in 5% CO2 incubator at 37° C. […] 36 hours after the incubation, the number of living cells was counted by the MTS method.
More specifically, 20 μl of CellTiter96™ AQueous One Solution (Promega) was added per one well, and after the cells were incubated for additional one hour, an absorbance at 490 nm was measured by using a microplate reader. The same culture added with DMSO as a solvent at final concentration of 0.25% was used as a control. The number of cells in the control was considered as 100% survival rate, and for each compound, survival rates by sole administration or a combined administration were calculated.

Compound	Activity
Nc1cccc2c(S(=O)(=O)NCc3c(F)cccc3F)cccc12 [Compound 12, 5-amino-N-[(2,6-difluorophenyl)methyl]-1-naphthalenesulfonamide hydrochloride]	++
Cc1ccccc1CNS(=O)(=O)c1cccc2c(N)cccc12 [Compound 15, 5-amino-N-[(2-methylphenyl)methyl]-1-naphthalenesulfonamide hydrochloride]	+
Nc1cccc2c(S(=O)(=O)NCc3ccc(C(F)(F)F)cc3)cccc12 [Compound 21, 5-amino-N-[[4-(trifluoromethyl)phenyl]methyl]-1-naphthalenesulfonamide hydrochloride]	++
Nc1cccc2c(S(=O)(=O)NCc3cccc([N+](=O)[O-])c3)cccc12 [Compound 41, 5-amino-N-[(3 nitrophenyl)methyl]-1-naphthalenesulfonamide hydrochloride]	++
CC(NS(=O)(=O)c1cccc2c(N)cccc12)c1ccccc1 (stereo not drawn) [Compound 55, 5-amino-N-(1-phenylethyl)-1-naphthalenesulfonamide]	+
Nc1cccc2c(S(=O)(=O)NCc3ccccc3Cl)cccc12 [Compound 3, 5-amino-N-[(2-chlorophenyl)methyl]-1-naphthalenesulfonamide hydrochloride]	+
COc1cc(CNS(=O)(=O)c2cccc3c(N)cccc23)cc(OC)c1 [Compound 31, 5-amino-N-[(3,5-dimethoxyphenyl)methyl]-1-naphthalenesulfonamide hydrochloride]	++
Nc1cccc2c(S(=O)(=O)NCc3ccc([N+](=O)[O-])cc3)cccc12 [Compound 42, 5-amino-N-[(4-nitrophenyl)methyl]-1-naphthalenesulfonamide hydrochloride]	++
Nc1cccc2c(S(=O)(=O)NCc3cccc(OCc4ccccc4)c3)cccc12 [Compound 35, 5-amino-N-[[3-(phenylmethoxy)phenyl]methyl]-1-naphthalenesulfonamide hydrochloride]	+
Nc1cccc2c(S(=O)(=O)NCc3ccccc3C(F)(F)F)cccc12 [Compound 19, 5-amino-N-[[2-(trifluoromethyl)phenyl]methyl]-1-naphthalenesulfonamide hydrochloride]	++
Nc1cccc2c(S(=O)(=O)NCc3ccc(OCc4ccccc4)cc3)cccc12 [Compound 36, 5-amino-N-[[4-(phenylmethoxy)phenyl]methyl]-1-naphthalenesulfonamide hydrochloride]	+
Nc1cccc2c(S(=O)(=O)NC3CCCc4ccccc43)cccc12 (stereo not drawn) [Compound 58, 5-amino-N-(1,2,3,4-tetrahydro-1-naphthalenyl)-1-naphthalenesulfonamide]	+
Nc1cccc2c(S(=O)(=O)NCc3cccc4ccccc34)cccc12 [Compound 1, 5-amino-N-[(1-naphthalenyl)methyl]-1-naphthalenesulfonamide hydrochloride]	+
Nc1cccc2c(S(=O)(=O)NCc3ccc(C(=O)O)cc3)cccc12 [Compound 48, 4-[[[(5-amino-1-naphthalenyl)sulfonyl]-amino]methyl]benzoic acid hydrochloride]	+
5-amino-N-[[[4′-methyl-1,1′-biphenyl]-2-yl]methyl]-1-naphthalenesulfonamide hydrochloride [Compound 23]	+
Nc1cccc2c(S(=O)(=O)NCc3ccccn3)cccc12 [Compound 53, 5-amino-N-(2-pyridinylmethyl)-1-naphthalenesulfonamide dihydrochloride]	+
Nc1cccc2c(S(=O)(=O)NCc3ccc(Cl)cc3)cccc12 [Compound 5, 5-amino-N-[(4-chlorophenyl)methyl]-1-naphthalenesulfonamide hydrochloride]	+
CC(NS(=O)(=O)c1cccc2c(N)cccc12)c1cccc2ccccc12 (stereo not drawn) [Compound 56, 5-amino-N-[1-(1-naphthalenyl)ethyl]-1-naphthalenesulfonamide hydrochloride]	+
COc1cccc(CNS(=O)(=O)c2cccc3c(N)cccc23)c1 [Compound 25, 5-amino-N-[(3-methoxyphenyl)methyl]-1-naphthalenesulfonamide hydrochloride]	++
Nc1cccc2c(S(=O)(=O)Nc3ccccc3)cccc12 [Compound 64, 5-amino-N-phenyl-1-naphthalenesulfonamide hydrochloride]	+
COc1cccc(CNS(=O)(=O)c2cccc3c(N)cccc23)c1OC [Compound 28, 5-amino-N-[(2,3-dimethoxyphenyl)methyl]-1-naphthalenesulfonamide hydrochloride]	++
Nc1cccc2c(S(=O)(=O)NCc3cccc(O)c3)cccc12 [Compound 38, 5-amino-N-[(3-hydroxyphenyl)methyl]-1-naphthalenesulfonamide hydrochloride]	+
Nc1cccc2c(S(=O)(=O)NCc3ccc(Cl)cc3Cl)cccc12 [Compound 6, 5-amino-N-[(2,4-dichlorophenyl)methyl]-1-naphthalenesulfonamide hydrochloride]	++
COc1ccccc1CNS(=O)(=O)c1cccc2c(N)cccc12 [Compound 24, 5-amino-N-[(2-methoxyphenyl)methyl]-1-naphthalenesulfonamide hydrochloride]	++
Nc1cccc2c(S(=O)(=O)NCc3cc(F)cc(F)c3)cccc12 [Compound 14, 5-amino-N-[(3,5-difluorophenyl)methyl]-1-naphthalenesulfonamide hydrochloride]	+
5-amino-N-[(2-fluorophenyl)methyl-1-naphthalenesulfonamide hydrochloride [Compound 9]	+
COc1ccc(CNS(=O)(=O)c2cccc3c(N)cccc23)cc1 [Compound 26, 5-amino-N-[(4-methoxyphenyl)methyl]-1-naphthalenesulfonamide hydrochloride]	+
Nc1cccc(CNS(=O)(=O)c2cccc3c(N)cccc23)c1 [Compound 44, 5-amino-N-[(3-aminophenyl)methyl]-1-naphthalenesulfonamide dihydrochloride]	+
Nc1ccccc1CNS(=O)(=O)c1cccc2c(N)cccc12 [Compound 43, 5-amino-N-[(2-aminophenyl)methyl]-1-naphthalenesulfonamide dihydrochloride]	+
CC(C)(C)c1ccc(CNS(=O)(=O)c2cccc3c(N)cccc23)cc1 [Compound 18, 5-amino-N-[[4-(1,1-dimethylethyl)phenyl]methyl]-1-naphthalenesulfonamide hydrochloride]	++
